What follows are molecules tested on Bacillus amyloliquefaciens LN.
Format: cell-based

Molecule | Zone diameter of LN [mm] | sensitivity of LN strain to the antibiotic according to CLSI
NCC[C@H](O)C(=O)N[C@@H]1C[C@H](N)[C@@H](O[C@H]2O[C@H](CN)[C@@H](O)[C@H](O)[C@H]2O)[C@H](O)[C@H]1O[C@H]1O[C@H](CO)[C@@H](O)[C@H](N)[C@H]1O [Amikacin] | 23.0 ± 0.8 | –
CC1(C)S[C@@H]2[C@H](NC(=O)[C@H](N)c3ccccc3)C(=O)N2[C@H]1C(=O)O [Ampicillin] | 16.2 ± 1.0 | no antibiotics sensitivity and resistance
Cn1nnnc1SCC1=C(C(=O)O)N2C(=O)[C@@H](NC(=O)[C@H](O)c3ccccc3)[C@H]2SC1 [Cefamandol] | 38.2 ± 7.1 | –
CO[C@@]1(NC(=O)Cc2cccs2)C(=O)N2C(C(=O)O)=C(COC(N)=O)CS[C@@H]21 [Cefoxitin] | 27.6 ± 1.5 | –
CC(=O)OCC1=C(C(=O)O)N2C(=O)[C@@H](NC(=O)Cc3cccs3)[C@H]2SC1 [Cephalothin] | 36.8 ± 1.7 | –
O=C(N[C@H](CO)[C@H](O)c1ccc([N+](=O)[O-])cc1)C(Cl)Cl [Chloramphenicol] | 30.7 ± 5.9 | –
CC[C@H]1OC(=O)[C@H](C)[C@@H](O[C@H]2C[C@@](C)(OC)[C@@H](O)[C@H](C)O2)[C@H](C)[C@@H](O[C@@H]2O[C@H](C)C[C@H](N(C)C)[C@H]2O)[C@](C)(O)C[C@@H](C)C(=O)[C@H](C)[C@@H](O)[C@]1(C)O [Erythromycin] | 24.5 ± 1.5 | –
C[C@@H](O)[C@H]1C(=O)N2C(C(=O)O)=C(SCCN=CN)C[C@H]12 [Imipeneem] | 29.5 ± 0.2 | –
NC[C@H]1O[C@H](O[C@H]2[C@H](O)[C@@H](O[C@H]3O[C@H](CO)[C@@H](O)[C@H](N)[C@H]3O)[C@H](N)C[C@@H]2N)[C@H](O)[C@@H](O)[C@@H]1O [Kanamycin] | 34.0 ± 0.4 | –
O=C1CN(/N=C/c2ccc([N+](=O)[O-])o2)C(=O)N1 [Nitrofurantoin] | 17.3 ± 0.6 | –
CCn1cc(C(=O)O)c(=O)c2cc(F)c(N3CCNCC3)cc21 [Norfloxacin] | 24.7 ± 0.8 | –
Cc1onc(-c2ccccc2)c1C(=O)N[C@@H]1C(=O)N2[C@@H]1SC(C)(C)[C@@H]2C(=O)O [Oxacillin] | 14.3 ± 0.6 | –
[H]/N=C(/N)N[C@H]1[C@H](O)[C@@H](O)[C@H](O[C@@H]2O[C@@H](C)[C@](O)(C=O)[C@H]2O[C@@H]2O[C@@H](CO)[C@H](O)[C@@H](O)[C@@H]2NC)[C@@H](N/C(N)=N\[H])[C@@H]1O [Streptomycin] | 14.3 ± 0.5 | no antibiotics sensitivity and resistance
CN(C)[C@@H]1C(O)=C(C(N)=O)C(=O)[C@@]2(O)C(O)=C3C(=O)c4c(O)cccc4[C@@](C)(O)[C@H]3C[C@@H]12 [Tetracycline] | 15.3 ± 1.1 | –
NC[C@H]1O[C@H](O[C@H]2[C@H](O)[C@@H](O[C@H]3O[C@H](CO)[C@@H](O)[C@H](N)[C@H]3O)[C@H](N)C[C@@H]2N)[C@H](N)C[C@@H]1O [Tobramycin] | 22.4 ± 1.8 | –
CN[C@H](CC(C)C)C(=O)N[C@H]1C(=O)N[C@@H](CC(N)=O)C(=O)N[C@H]2C(=O)N[C@H]3C(=O)N[C@H](C(=O)N[C@H](C(=O)O)c4cc(O)cc(O)c4-c4cc3ccc4O)[C@H](O)c3ccc(c(Cl)c3)Oc3cc2cc(c3O[C@@H]2O[C@H](CO)[C@@H](O)[C@H](O)[C@H]2O[C@H]2C[C@](C)(N)[C@H](O)[C@H](C)O2)Oc2ccc(cc2Cl)[C@H]1O [Vancomycin] | 19.0 ± 0.8 | –
Cefoxime | 28.7 ± 7.0 | –
Gentamicin | 35.0 ± 9.6 | –
Neomycin | 20.9 ± 2.3 | –
